Measured values published in patent US8481586B2, “Pyrrolo[2,3-a] carbazoles and use thereof as PIM kinase inhibitors” (Centre National de la Recherche Scientifique, priority 2008, dated 2013).

What was measured:
Assay in all cases: kinase panel residual activity test
Type in all cases: biochemical
Settings in all cases: compound at 10 μM
AMPK = system: AMPK
Source text: (§1) MKK1, ERK 1, ERK 2, JNK1, JNK2, JNK3, p38a MAPK, p38b MAPK, p38g MAPK, p38s MAPK, ERK8, RSK1, RSK2, PDK1, PKBa, PKBb, SGK1, S6K1, PKA, ROCK2, PRK2, PKCa, PKC zeta, PKD1, MSK1, MNK1, MNK2, MAPKAP-K2, MAPKAP-K3, PRAK, CAMKKa, CAMKKb, CAMK1, SmMLCK, PHK, CHK1, CHK2, GSK3b, CDK2/cyclin A, PLK1, PLK1 (Okadaic acid), Aurora B, Aurora C, AMPK, MARK3, BRSK2, MELK, CK1, CK2, NEK2a, NEK6, NEK7, IKKb, PIM-1, PIM-2, PIM-3, SRPK1, MST2, EF2K, HIPK2, HIPK3, PAK-4, PAK5, PAK6, Src, Lck, CSK.

MSK1 = MSK1 (Homo sapiens (Human), UniProt O75582)
Source text: as §1

CSK = CSK (Homo sapiens (Human), UniProt P41240)
Source text: as §1

MAPKAP-K2 = MAPKAP-K2 (Homo sapiens (Human), UniProt P49137)
Source text: as §1

PAK4 = PAK4 (Homo sapiens (Human), UniProt O96013)
Source text: as §1

PKBb = PKBb (Homo sapiens (Human), UniProt P31751)
Source text: as §1

ERK1 = ERK1 (Homo sapiens (Human), UniProt P27361)
Source text: as §1

CAMKKb = CAMKKb (Homo sapiens (Human), UniProt Q96RR4)
Source text: as §1

PLK1 = PLK1 (Homo sapiens (Human), UniProt P53350)
Source text: as §1

CHK1 = CHK1 (Homo sapiens (Human), UniProt O14757)
Source text: as §1

IKKb = IKKb (Homo sapiens (Human), UniProt O14920)
Source text: as §1

p38a MAPK = p38a MAPK (Homo sapiens (Human), UniProt Q16539)
Source text: as §1

CHK2 = CHK2 (Homo sapiens (Human), UniProt O96017)
Source text: as §1

PKA = PKA (Homo sapiens (Human), UniProt P17612)
Source text: as §1

CDK2/cyclin A = CDK2/cyclin A (Homo sapiens (Human), UniProt P24941)
Source text: as §1

JNK2 = JNK2 (Homo sapiens (Human), UniProt P45984)
Source text: as §1

MST2 = MST2 (Homo sapiens (Human), UniProt Q13188)
Source text: as §1

RSK2 = RSK2 (Homo sapiens (Human), UniProt P51812)
Source text: as §1

Aurora C = Aurora C (Homo sapiens (Human), UniProt Q9UQB9)
Source text: as §1

CAMKKa = CAMKKa (Homo sapiens (Human), UniProt Q8N5S9)
Source text: as §1

NEK7 = NEK7 (Homo sapiens (Human), UniProt Q8TDX7)
Source text: as §1

PKD1 = PKD1 (Homo sapiens (Human), UniProt Q15139)
Source text: as §1

PKC zeta = PKC zeta (Homo sapiens (Human), UniProt Q05513)
Source text: as §1

Aurora B = Aurora B (Homo sapiens (Human), UniProt Q96GD4)
Source text: as §1

MNK2 = MNK2 (Homo sapiens (Human), UniProt Q9HBH9)
Source text: as §1

MARK3 = MARK3 (Homo sapiens (Human), UniProt P27448)
Source text: as §1

p38b MAPK = p38b MAPK (Homo sapiens (Human), UniProt Q15759)
Source text: as §1

SmMLCK = system: SmMLCK
Source text: as §1

NEK2a = NEK2a (Homo sapiens (Human), UniProt P51955)
Source text: as §1

EF2K = EF2K (Homo sapiens (Human), UniProt O00418)
Source text: as §1

SGK1 = SGK1 (Homo sapiens (Human), UniProt O00141)
Source text: as §1

JNK3 = JNK3 (Homo sapiens (Human), UniProt P53779)
Source text: as §1

Src = Src (Homo sapiens (Human), UniProt P12931)
Source text: as §1

PRK2 = PRK2 (Homo sapiens (Human), UniProt Q16513)
Source text: as §1

PKCa = PKCa (Homo sapiens (Human), UniProt P17252)
Source text: as §1

ERK8 = ERK8 (Homo sapiens (Human), UniProt Q8TD08)
Source text: as §1

PKBa = PKBa (Homo sapiens (Human), UniProt P31749)
Source text: as §1

MNK1 = MNK1 (Homo sapiens (Human), UniProt Q9BUB5)
Source text: as §1

CHK1, sequence (O14757 whole entry, species assumed): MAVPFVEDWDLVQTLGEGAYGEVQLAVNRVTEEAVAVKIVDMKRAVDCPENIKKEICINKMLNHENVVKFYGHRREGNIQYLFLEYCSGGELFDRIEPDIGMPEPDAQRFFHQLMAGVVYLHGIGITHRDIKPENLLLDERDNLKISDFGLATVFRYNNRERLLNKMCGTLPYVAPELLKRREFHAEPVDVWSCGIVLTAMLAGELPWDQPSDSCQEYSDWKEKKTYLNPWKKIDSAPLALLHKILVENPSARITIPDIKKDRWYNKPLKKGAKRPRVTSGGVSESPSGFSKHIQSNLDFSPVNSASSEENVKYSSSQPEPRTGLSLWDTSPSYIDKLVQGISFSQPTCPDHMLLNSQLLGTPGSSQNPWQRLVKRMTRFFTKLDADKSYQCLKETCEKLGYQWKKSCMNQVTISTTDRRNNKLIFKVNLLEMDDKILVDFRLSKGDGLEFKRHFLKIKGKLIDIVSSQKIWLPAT
PKC zeta, sequence (Q05513 whole entry): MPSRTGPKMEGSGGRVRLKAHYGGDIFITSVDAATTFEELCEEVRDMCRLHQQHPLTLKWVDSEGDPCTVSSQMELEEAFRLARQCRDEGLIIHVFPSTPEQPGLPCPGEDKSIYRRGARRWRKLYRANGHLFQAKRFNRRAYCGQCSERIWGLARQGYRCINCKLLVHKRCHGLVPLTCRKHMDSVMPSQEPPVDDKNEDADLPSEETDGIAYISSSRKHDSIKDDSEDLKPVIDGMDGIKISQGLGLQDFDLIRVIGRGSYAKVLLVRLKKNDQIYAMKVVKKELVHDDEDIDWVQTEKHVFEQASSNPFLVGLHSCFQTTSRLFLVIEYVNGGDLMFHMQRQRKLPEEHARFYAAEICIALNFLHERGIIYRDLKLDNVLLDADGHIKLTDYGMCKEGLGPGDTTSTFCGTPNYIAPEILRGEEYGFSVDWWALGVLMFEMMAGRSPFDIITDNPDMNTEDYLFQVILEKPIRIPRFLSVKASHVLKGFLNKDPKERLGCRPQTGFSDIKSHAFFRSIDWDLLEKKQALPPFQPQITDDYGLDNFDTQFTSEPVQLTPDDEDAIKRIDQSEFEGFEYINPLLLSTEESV
JNK3, sequence (P53779 whole entry, species assumed): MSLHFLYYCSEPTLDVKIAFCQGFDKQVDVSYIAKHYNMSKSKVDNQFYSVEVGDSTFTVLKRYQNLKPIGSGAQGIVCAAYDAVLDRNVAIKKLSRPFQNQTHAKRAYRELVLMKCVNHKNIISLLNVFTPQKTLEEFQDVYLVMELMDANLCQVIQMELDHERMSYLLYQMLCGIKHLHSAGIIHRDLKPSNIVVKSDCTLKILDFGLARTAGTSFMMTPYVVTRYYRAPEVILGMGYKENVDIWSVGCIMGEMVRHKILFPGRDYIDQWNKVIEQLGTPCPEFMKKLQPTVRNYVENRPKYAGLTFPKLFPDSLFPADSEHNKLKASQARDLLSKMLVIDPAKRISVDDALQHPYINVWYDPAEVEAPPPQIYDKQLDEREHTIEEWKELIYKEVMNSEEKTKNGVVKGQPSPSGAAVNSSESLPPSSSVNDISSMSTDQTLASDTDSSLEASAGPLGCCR
MARK3, sequence (P27448 whole entry, species assumed): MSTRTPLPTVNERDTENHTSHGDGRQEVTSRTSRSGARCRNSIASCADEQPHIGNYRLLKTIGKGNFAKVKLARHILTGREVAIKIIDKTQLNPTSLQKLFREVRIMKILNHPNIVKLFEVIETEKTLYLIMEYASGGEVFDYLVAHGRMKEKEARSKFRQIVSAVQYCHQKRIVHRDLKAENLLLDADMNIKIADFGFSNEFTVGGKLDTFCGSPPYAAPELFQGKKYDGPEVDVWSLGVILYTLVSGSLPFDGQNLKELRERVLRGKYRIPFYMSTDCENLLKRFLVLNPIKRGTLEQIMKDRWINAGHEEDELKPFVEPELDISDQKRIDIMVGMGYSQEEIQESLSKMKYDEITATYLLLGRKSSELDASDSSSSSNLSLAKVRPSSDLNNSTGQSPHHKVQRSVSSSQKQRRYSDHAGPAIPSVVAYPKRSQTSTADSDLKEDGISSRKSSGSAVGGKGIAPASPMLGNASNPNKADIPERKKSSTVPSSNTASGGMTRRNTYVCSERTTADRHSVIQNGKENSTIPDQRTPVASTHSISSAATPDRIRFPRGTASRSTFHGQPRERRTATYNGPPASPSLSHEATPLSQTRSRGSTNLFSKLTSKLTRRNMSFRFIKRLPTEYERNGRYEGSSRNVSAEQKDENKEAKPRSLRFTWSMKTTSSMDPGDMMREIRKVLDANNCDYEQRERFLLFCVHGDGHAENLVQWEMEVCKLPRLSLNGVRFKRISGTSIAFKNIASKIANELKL
NEK2a, sequence (P51955 whole entry, species assumed): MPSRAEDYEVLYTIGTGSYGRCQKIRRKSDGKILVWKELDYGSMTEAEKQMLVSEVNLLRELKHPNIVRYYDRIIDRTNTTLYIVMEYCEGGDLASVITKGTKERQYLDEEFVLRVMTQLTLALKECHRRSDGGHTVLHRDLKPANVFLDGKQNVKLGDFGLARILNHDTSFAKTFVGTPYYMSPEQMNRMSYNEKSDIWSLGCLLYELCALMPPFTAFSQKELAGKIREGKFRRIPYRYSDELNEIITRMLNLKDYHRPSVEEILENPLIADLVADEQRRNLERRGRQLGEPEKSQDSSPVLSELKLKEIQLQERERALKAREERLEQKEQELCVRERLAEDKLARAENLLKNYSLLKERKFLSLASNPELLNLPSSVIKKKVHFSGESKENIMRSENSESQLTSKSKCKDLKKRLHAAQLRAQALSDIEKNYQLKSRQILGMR
CSK, sequence (P41240 whole entry, species assumed): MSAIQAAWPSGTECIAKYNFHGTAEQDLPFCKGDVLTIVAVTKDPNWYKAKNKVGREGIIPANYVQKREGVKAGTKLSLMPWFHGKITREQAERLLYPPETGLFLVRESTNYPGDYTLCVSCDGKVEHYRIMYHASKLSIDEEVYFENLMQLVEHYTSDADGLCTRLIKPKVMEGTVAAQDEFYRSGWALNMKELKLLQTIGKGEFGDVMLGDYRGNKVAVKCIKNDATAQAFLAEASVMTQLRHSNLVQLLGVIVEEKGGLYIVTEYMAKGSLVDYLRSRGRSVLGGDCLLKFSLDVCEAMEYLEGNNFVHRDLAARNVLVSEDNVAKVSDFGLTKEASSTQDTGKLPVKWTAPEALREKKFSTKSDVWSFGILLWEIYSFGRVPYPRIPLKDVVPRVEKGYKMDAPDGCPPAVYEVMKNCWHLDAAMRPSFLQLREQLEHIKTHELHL
PKBa, sequence (P31749 whole entry): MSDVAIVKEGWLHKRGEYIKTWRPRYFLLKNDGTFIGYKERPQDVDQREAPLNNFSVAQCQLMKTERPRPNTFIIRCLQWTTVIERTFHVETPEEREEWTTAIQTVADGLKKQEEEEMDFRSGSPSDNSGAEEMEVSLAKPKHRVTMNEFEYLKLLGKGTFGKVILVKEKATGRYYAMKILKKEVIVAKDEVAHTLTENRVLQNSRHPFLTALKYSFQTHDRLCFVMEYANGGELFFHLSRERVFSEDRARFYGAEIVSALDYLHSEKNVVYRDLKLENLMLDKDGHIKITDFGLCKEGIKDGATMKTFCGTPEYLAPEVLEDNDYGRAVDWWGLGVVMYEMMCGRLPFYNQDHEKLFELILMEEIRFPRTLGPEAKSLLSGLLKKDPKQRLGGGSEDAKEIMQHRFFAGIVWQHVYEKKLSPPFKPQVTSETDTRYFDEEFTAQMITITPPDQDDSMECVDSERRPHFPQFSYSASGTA
NEK7, sequence (Q8TDX7 whole entry, species assumed): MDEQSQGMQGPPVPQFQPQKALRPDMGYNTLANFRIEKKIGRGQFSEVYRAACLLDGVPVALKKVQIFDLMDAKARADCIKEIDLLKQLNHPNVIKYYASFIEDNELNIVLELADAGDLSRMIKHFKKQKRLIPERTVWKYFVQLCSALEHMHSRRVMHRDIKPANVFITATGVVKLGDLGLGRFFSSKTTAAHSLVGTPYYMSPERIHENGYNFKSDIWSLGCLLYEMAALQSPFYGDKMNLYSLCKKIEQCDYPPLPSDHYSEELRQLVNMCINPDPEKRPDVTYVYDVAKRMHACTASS
p38b MAPK, sequence (Q15759 whole entry): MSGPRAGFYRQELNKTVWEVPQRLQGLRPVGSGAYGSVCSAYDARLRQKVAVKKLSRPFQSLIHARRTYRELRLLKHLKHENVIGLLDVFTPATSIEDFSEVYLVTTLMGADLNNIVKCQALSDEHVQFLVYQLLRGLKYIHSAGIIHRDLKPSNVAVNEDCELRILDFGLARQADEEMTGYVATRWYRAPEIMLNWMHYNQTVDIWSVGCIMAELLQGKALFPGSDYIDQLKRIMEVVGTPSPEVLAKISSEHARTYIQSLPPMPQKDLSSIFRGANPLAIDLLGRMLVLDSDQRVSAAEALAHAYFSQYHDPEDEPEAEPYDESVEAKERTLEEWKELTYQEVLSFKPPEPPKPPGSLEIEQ

| SMILES | % residual activity AMPK (AMPK) | remaining activity at 10 µM (MSK1) | remaining activity at 10 µM (CSK) | remaining activity at 10 µM (MAPKAP-K2) | remaining activity at 10 µM (PAK4) | remaining activity at 10 µM (PKBb) | remaining activity at 10 µM (ERK1) | remaining activity at 10 µM (CAMKKb) | remaining activity at 10 µM (PLK1) | remaining activity at 10 µM (CHK1) | remaining activity at 10 µM (IKKb) | remaining activity at 10 µM (p38a MAPK) | remaining activity at 10 µM (CHK2) | remaining activity at 10 µM (PKA) | remaining activity at 10 µM (CDK2/cyclin A) | remaining activity at 10 µM (JNK2) | remaining activity at 10 µM (MST2) | remaining activity at 10 µM (RSK2) | remaining activity at 10 µM (Aurora C) | remaining activity at 10 µM (CAMKKa) | further results |
| --- | --- | --- | --- | --- | --- | --- | --- | --- | --- | --- | --- | --- | --- | --- | --- | --- | --- | --- | --- | --- | --- |
| c1ccc2c(c1)[nH]c1c2ccc2cc[nH]c21 [Example 2, 1,10-dihydropyrrolo[2,3-a]carbazole] | 80% | 90% | 98% | 118% | 84% | 107% | 108% | 93% | 111% | 123% | 106% | 108% | 58% | 95% | 97% | 118% | 82% | 129% | 85% | 76% | remaining activity at 10 µM (NEK7): 96%; remaining activity at 10 µM (PKD1): 83%; remaining activity at 10 µM (PKC zeta): 91%; remaining activity at 10 µM (Aurora B): 67%; remaining activity at 10 µM (MNK2): 95%; remaining activity at 10 µM (MARK3): 116%; remaining activity at 10 µM (p38b MAPK): 100%; % residual activity SmMLCK (SmMLCK): 86%; remaining activity at 10 µM (NEK2a): 104%; remaining activity at 10 µM (EF2K): 101%; remaining activity at 10 µM (SGK1): 82%; remaining activity at 10 µM (JNK3): 108%; remaining activity at 10 µM (Src): 98%; remaining activity at 10 µM (PRK2): 95%; remaining activity at 10 µM (PKCa): 111%; remaining activity at 10 µM (ERK8): 55%; remaining activity at 10 µM (PKBa): 120%; remaining activity at 10 µM (MNK1): 69% |
| O=Cc1c[nH]c2c1ccc1c3ccccc3[nH]c12 [Example 3, 1,10-dihydropyrrolo[2,3-a]carbazole-3-carbaldehyde] | 59% | 71% | 74% | 84% | 88% | 98% | 87% | 56% | 91% | 97% | 71% | 102% | 38% | 60% | 74% | 128% | 63% | 124% | 79% | 42% | remaining activity at 10 µM (NEK7): 89%; remaining activity at 10 µM (PKD1): 28%; remaining activity at 10 µM (PKC zeta): 83%; remaining activity at 10 µM (Aurora B): 68%; remaining activity at 10 µM (MNK2): 55%; remaining activity at 10 µM (MARK3): 88%; remaining activity at 10 µM (p38b MAPK): 80%; % residual activity SmMLCK (SmMLCK): 60%; remaining activity at 10 µM (NEK2a): 88%; remaining activity at 10 µM (EF2K): 90%; remaining activity at 10 µM (SGK1): 64%; remaining activity at 10 µM (JNK3): 113%; remaining activity at 10 µM (Src): 85%; remaining activity at 10 µM (PRK2): 31%; remaining activity at 10 µM (PKCa): 84%; remaining activity at 10 µM (ERK8): 20%; remaining activity at 10 µM (PKBa): 96%; remaining activity at 10 µM (MNK1): 27% |
| NC(=O)c1c[nH]c2c1ccc1c3ccccc3[nH]c12 [Example 5, 1,10-dihydropyrrolo[2,3-a]carbazole-3-carboxamide] | 85% | 91% | 65% | 92% | 16% | 103% | 71% | 79% | 100% | 113% | 80% | 96% | 44% | 80% | 53% | 115% | 76% | 97% | 61% | 75% | remaining activity at 10 µM (NEK7): 89%; remaining activity at 10 µM (PKD1): 19%; remaining activity at 10 µM (PKC zeta): 78%; remaining activity at 10 µM (Aurora B): 65%; remaining activity at 10 µM (MNK2): 57%; remaining activity at 10 µM (MARK3): 73%; remaining activity at 10 µM (p38b MAPK): 92%; % residual activity SmMLCK (SmMLCK): 69%; remaining activity at 10 µM (NEK2a): 106%; remaining activity at 10 µM (EF2K): 92%; remaining activity at 10 µM (SGK1): 71%; remaining activity at 10 µM (JNK3): 104%; remaining activity at 10 µM (Src): 96%; remaining activity at 10 µM (PRK2): 54%; remaining activity at 10 µM (PKCa): 80%; remaining activity at 10 µM (ERK8): 46%; remaining activity at 10 µM (PKBa): 97%; remaining activity at 10 µM (MNK1): 19% |
